Results taken from PubChem BioAssay AID256 (DTP/NCI, 2004).
Values joined by “and” are separate entries in the source; they are usually repeats but may differ in a detail not shown here. Equal values may be shown once. Toxic doses and inconclusive results are not listed.

Test system: CD2F1 mice, L1210 leukemia ip, survival T/C
Assay: NCI In Vivo Anticancer Drug Screen. Data for tumor model L1210 Leukemia (intraperitoneal) in CD2F1 (CDF1) mice
Conditions: higher = longer survival
Method in brief: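 Ratio T/C, where T is the treated-group value and C the vehicle-dosed control value, from mice implanted with a transplantable tumor.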

[1] = endpoint: mean survival time, dose: 100.0 mg/kg/injection, schedule: Q04DX003 (ip), vehicle: saline with Tween-80
[2] = endpoint: mean survival time, dose: 200.0 mg/kg/injection, schedule: Q04DX003 (ip), vehicle: saline with Tween-80
[3] = endpoint: mean survival time, dose: 400.0 mg/kg/injection, schedule: Q04DX003 (ip), vehicle: saline with Tween-80
[4] = endpoint: mean survival time, dose: 100.0 mg/kg/injection, schedule: Q01DX009 (ip), vehicle: saline with Tween-80
[5] = endpoint: mean survival time, dose: 200.0 mg/kg/injection, schedule: Q01DX009 (ip), vehicle: saline with Tween-80
[6] = endpoint: mean survival time, dose: 50.0 mg/kg/injection, schedule: Q04DX003 (ip), vehicle: saline with Tween-80
[7] = endpoint: mean survival time, dose: 50.0 mg/kg/injection, schedule: Q01DX009 (ip), vehicle: saline with Tween-80
[8] = endpoint: mean survival time, dose: 50.0 mg/kg/injection, schedule: Q01DX009 (ip), vehicle: saline
[9] = endpoint: mean survival time, dose: 100.0 mg/kg/injection, schedule: Q01DX009 (ip), vehicle: saline
[10] = endpoint: mean survival time, dose: 200.0 mg/kg/injection, schedule: Q01DX009 (ip), vehicle: saline
[11] = endpoint: mean survival time, dose: 75.0 mg/kg/injection, schedule: Q01DX001 (ip), vehicle: saline
[12] = endpoint: mean survival time, dose: 100.0 mg/kg/injection, schedule: Q01DX001 (ip), vehicle: saline with Tween-80
[13] = endpoint: mean survival time, dose: 200.0 mg/kg/injection, schedule: Q01DX001 (ip), vehicle: saline with Tween-80
[14] = endpoint: mean survival time, dose: 400.0 mg/kg/injection, schedule: Q01DX001 (ip), vehicle: saline with Tween-80

CN(C)S(=O)(=O)C=C(c1ccccc1)c1ccccc1
T/C [1]: 107 % of control | T/C [2]: 96 % of control | T/C [3]: 94 % of control

NS(=O)(=O)c1cc([N+](=O)[O-])ccc1Cl
T/C [4]: 91 % of control | T/C [5]: 98 % of control

COc1cc(NC(=O)CC(C)=O)c(OC)cc1Cl
T/C [4]: 96 % of control | T/C [5]: 94 % of control | T/C (endpoint: mean survival time, dose: 400.0 mg/kg/injection, schedule: Q01DX009 (ip), vehicle: saline with Tween-80): 91 % of control

O=C(C=C(C(F)(F)F)C(F)(F)F)c1cccc(C(F)(F)F)c1
T/C (endpoint: mean survival time, dose: 25.0 mg/kg/injection, schedule: Q04DX003 (ip), vehicle: saline with Tween-80): 106 % of control | T/C [6]: 106 % of control

COc1cc(C(C)=O)cc([N+](=O)[O-])c1O
T/C [7]: 102 % of control | T/C [4]: 91 % of control

Cc1ccc([N+](=O)[O-])cc1NC(=O)Nc1cc([N+](=O)[O-])ccc1F
T/C (endpoint: mean survival time, dose: 50.0 mg/kg/injection, schedule: Q01DX009 (ip), vehicle: Klucel (hydroxypropylcellulose) (HPC)): 112 % of control | T/C (endpoint: mean survival time, dose: 100.0 mg/kg/injection, schedule: Q01DX009 (ip), vehicle: Klucel (hydroxypropylcellulose) (HPC)): 101 % of control | T/C (endpoint: mean survival time, dose: 200.0 mg/kg/injection, schedule: Q01DX009 (ip), vehicle: Klucel (hydroxypropylcellulose) (HPC)): 101 % of control

CC12CCC(=O)C=C1CCC1C2CCC2(C)C1CCC2(O)C(=O)Cn1c(=O)cc[nH]c1=O (configuration not stated)
T/C (endpoint: mean survival time, dose: 12.5 mg/kg/injection, schedule: Q04DX003 (ip), vehicle: Klucel (hydroxypropylcellulose) (HPC)): 100 % of control | T/C (endpoint: mean survival time, dose: 25.0 mg/kg/injection, schedule: Q04DX003 (ip), vehicle: Klucel (hydroxypropylcellulose) (HPC)): 93 % of control | T/C (endpoint: mean survival time, dose: 50.0 mg/kg/injection, schedule: Q04DX003 (ip), vehicle: Klucel (hydroxypropylcellulose) (HPC)): 94 % of control | T/C (endpoint: mean survival time, dose: 100.0 mg/kg/injection, schedule: Q04DX003 (ip), vehicle: Klucel (hydroxypropylcellulose) (HPC)): 93 % of control | T/C (endpoint: mean survival time, dose: 200.0 mg/kg/injection, schedule: Q04DX003 (ip), vehicle: Klucel (hydroxypropylcellulose) (HPC)): 93 % of control

O=C(OC1OC(CO)C(O)C(O)C1O)c1ccccc1 (configuration not stated)
T/C [8]: 97 % of control | T/C [9]: 101 % of control | T/C [10]: 93 % of control

CCN=C(N)C(N)=NCC
T/C (endpoint: mean survival time, dose: 25.0 mg/kg/injection, schedule: Q04DX002 (ip), vehicle: saline with Tween-80): 100 % of control | T/C (endpoint: mean survival time, dose: 50.0 mg/kg/injection, schedule: Q04DX002 (ip), vehicle: saline with Tween-80): 96 % of control | T/C (endpoint: mean survival time, dose: 100.0 mg/kg/injection, schedule: Q04DX002 (ip), vehicle: saline with Tween-80): 100 % of control | T/C (endpoint: mean survival time, dose: 200.0 mg/kg/injection, schedule: Q04DX002 (ip), vehicle: saline with Tween-80): 100 % of control

N#CCSc1nc(N)nc2nc[nH]c12
T/C [4]: 103 % of control | T/C (endpoint: mean survival time, dose: 100.0 mg/kg/injection, schedule: Q04DX003 (ip), vehicle: saline sonified): 102 % of control | T/C [5]: 116 % of control | T/C (endpoint: mean survival time, dose: 200.0 mg/kg/injection, schedule: Q04DX003 (ip), vehicle: saline sonified): 105 % of control | T/C (endpoint: mean survival time, dose: 400.0 mg/kg/injection, schedule: Q04DX003 (ip), vehicle: saline sonified): 107 % of control

O=C(COc1ccc(Cl)cc1Cl)Nc1ccc(F)cc1
T/C [1]: 88 % of control | T/C [2]: 90 % of control | T/C [3]: 89 % of control

O=C1CC2CCCCC2CO1 (configuration not stated)
T/C [11]: 160 % of control

COC1OC(CCl)C(Cl)C(Cl)C1O (configuration not stated)
T/C [12]: 102 % of control | T/C [13]: 96 % of control | T/C [14]: 102 % of control

CC(=O)NC1=NC(=O)/C(=C/Cc2cccs2)N1C
T/C [4]: 101 % of control | T/C [5]: 108 % of control

Cc1ncc(C[P+](c2ccccc2)(c2ccccc2)c2ccccc2)c2c1OC(C)(C)OC2
T/C [11]: 103 % of control | T/C (endpoint: mean survival time, dose: 150.0 mg/kg/injection, schedule: Q01DX001 (ip), vehicle: saline): 112 % of control

CO[C@@]12[C@@H]3N[C@@H]3CN1C1=C(C(=O)C(NCCc3ccccn3)=C(C)C1=O)[C@@H]2COC(N)=O
T/C (endpoint: median survival time, dose: 3.12 mg/kg/injection, schedule: Q01DX001 (ip), vehicle: saline with Tween-80): 93 % of control | T/C (endpoint: median survival time, dose: 3.13 mg/kg/injection, schedule: Q01DX005 (ip), vehicle: saline with Tween-80): 153 % of control | T/C (endpoint: median survival time, dose: 6.25 mg/kg/injection, schedule: Q01DX001 (ip), vehicle: saline with Tween-80): 111 % of control | T/C (endpoint: median survival time, dose: 6.25 mg/kg/injection, schedule: Q01DX005 (ip), vehicle: saline with Tween-80): 164 % of control | T/C (endpoint: median survival time, dose: 12.5 mg/kg/injection, schedule: Q01DX001 (ip), vehicle: saline with Tween-80): 120 % of control | T/C (endpoint: median survival time, dose: 12.5 mg/kg/injection, schedule: Q01DX005 (ip), vehicle: saline with Tween-80): 166 % of control | T/C (endpoint: median survival time, dose: 18.0 mg/kg/injection, schedule: Q01DX001 (ip), vehicle: saline with Tween-80): 153 % of control | T/C (endpoint: median survival time, dose: 25.0 mg/kg/injection, schedule: Q01DX005 (ip), vehicle: saline with Tween-80): 89 % of control | T/C (endpoint: median survival time, dose: 30.0 mg/kg/injection, schedule: Q01DX001 (ip), vehicle: saline with Tween-80): 160 % of control | T/C (endpoint: median survival time, dose: 50.0 mg/kg/injection, schedule: Q01DX001 (ip), vehicle: saline with Tween-80): 188 % of control and 200 % of control | T/C (endpoint: median survival time, dose: 83.32 mg/kg/injection, schedule: Q01DX001 (ip), vehicle: saline with Tween-80): 156 % of control | T/C (endpoint: median survival time, dose: 3.12 micrograms/kg/injection, schedule: Q01DX001 (ip), vehicle: saline with Tween-80): 97 % of control | T/C (endpoint: median survival time, dose: 6.25 micrograms/kg/injection, schedule: Q01DX001 (ip), vehicle: saline with Tween-80): 102 % of control | T/C (endpoint: median survival time, dose: 12.5 micrograms/kg/injection, schedule: Q01DX001 (ip), vehicle: saline with Tween-80): 108 % of control | T/C (endpoint: median survival time, dose: 25.0 micrograms/kg/injection, schedule: Q01DX001 (ip), vehicle: saline with Tween-80): 97 % of control | T/C (endpoint: median survival time, dose: 50.0 micrograms/kg/injection, schedule: Q01DX001 (ip), vehicle: saline with Tween-80): 97 % of control | T/C (endpoint: median survival time, dose: 3125.0 micrograms/kg/injection, schedule: Q01DX001 (ip), vehicle: saline with Tween-80): 118 % of control | T/C (endpoint: median survival time, dose: 25000.0 micrograms/kg/injection, schedule: Q01DX001 (ip), vehicle: saline with Tween-80): 153 % of control | T/C (endpoint: median survival time, dose: 50000.0 micrograms/kg/injection, schedule: Q01DX001 (ip), vehicle: saline with Tween-80): 322 % of control

O=C1CSC(c2ccccc2)N1 (configuration not stated)
T/C [6]: 102 % of control | T/C [1]: 100 % of control | T/C [2]: 100 % of control

O=C1C=CC(=Nc2ccc(Cl)cc2)O1
T/C [1]: 101 % of control | T/C [3]: 97 % of control

Nc1ncnc(N)c1N=O
T/C [1]: 96 % of control | T/C [2]: 89 % of control

NCCCCCBr
T/C [8]: 98 % of control | T/C [9]: 90 % of control | T/C [10]: 98 % of control

CN(CCC#N)C1=CCCC1
T/C [9]: 102 % of control | T/C [10]: 112 % of control | T/C (endpoint: mean survival time, dose: 400.0 mg/kg/injection, schedule: Q01DX009 (ip), vehicle: saline): 105 % of control

CC(O)CC(C)(C)S(=O)(=O)Cc1ccccc1 (configuration not stated)
T/C (endpoint: mean survival time, dose: 100.0 mg/kg/injection, schedule: Q01DX001 (ip), vehicle: Klucel (hydroxypropylcellulose) (HPC)): 101 % of control | T/C (endpoint: mean survival time, dose: 200.0 mg/kg/injection, schedule: Q01DX001 (ip), vehicle: Klucel (hydroxypropylcellulose) (HPC)): 86 % of control | T/C (endpoint: mean survival time, dose: 400.0 mg/kg/injection, schedule: Q01DX001 (ip), vehicle: Klucel (hydroxypropylcellulose) (HPC)): 93 % of control

COC1CC(O)C(OS(=O)(=O)c2ccc(C)cc2)C(C)O1 (configuration not stated)
T/C (endpoint: mean survival time, dose: 100.0 mg/kg/injection, schedule: Q01DX001 (ip), vehicle: saline): 112 % of control | T/C (endpoint: mean survival time, dose: 200.0 mg/kg/injection, schedule: Q01DX001 (ip), vehicle: saline): 100 % of control | T/C (endpoint: mean survival time, dose: 400.0 mg/kg/injection, schedule: Q01DX001 (ip), vehicle: saline): 102 % of control

O=C(CC(NC(=O)OCc1ccccc1)C(=O)O)OCc1ccccc1 (configuration not stated)
T/C [1]: 103 % of control | T/C [2]: 95 % of control | T/C [3]: 102 % of control

CC1CC(C)(C)N=C(C2CCCC2)O1 (configuration not stated)
T/C [12]: 96 % of control | T/C [13]: 96 % of control | T/C [14]: 100 % of control

CC1(C)CC(=O)C2(C)C(C1O)C2C1C2C(O)C(C)(C)CC(=O)C21C (configuration not stated)
T/C (endpoint: mean survival time, dose: 75.0 mg/kg/injection, schedule: Q01DX001 (ip), vehicle: other): 96 % of control | T/C (endpoint: mean survival time, dose: 150.0 mg/kg/injection, schedule: Q01DX001 (ip), vehicle: other): 94 % of control | T/C (endpoint: mean survival time, dose: 300.0 mg/kg/injection, schedule: Q01DX001 (ip), vehicle: other): 91 % of control

Cc1[nH]c(C(=O)NN)c(C)c1C(=O)NN
T/C (endpoint: mean survival time, dose: 25.0 mg/kg/injection, schedule: Q01DX009 (ip), vehicle: saline with Tween-80): 111 % of control | T/C [7]: 100 % of control | T/C [4]: 103 % of control | T/C [1]: 98 % of control

OC1CCSc2ccc3ccccc3c21 (configuration not stated)
T/C [12]: 108 % of control | T/C [13]: 105 % of control | T/C [14]: 103 % of control
